{
  "source": "patent US20070253953A1",
  "about": "“Molecular Signature of the Pten Tumor Suppressor” (REGENTS OF THE UNIVERSITY OF CALIFORNIA, THE, priority 2003, published 2007)",
  "key": {"PTEN mutated tumors": {"system": "PTEN mutated tumors", "conditions": "cited from earlier work"}, "LNCaP cells": {"system": "LNCaP cells", "assay": "Cell cycle analysis of LNCaP cells treated with PI3K inhibitor", "type": "cell-based", "text": "FIG. 5. IGFBP2 plays a functional role in the PI3K-Akt pathway. (A) Cell cycle analysis of vector or IGFBP2 infected LNCaP cells treated with PI3K inhibitor (LY294002). (B and C) Clonagenic assay on wild-type or IGFBP2 knockout mouse embryonic fibroblasts with or without constitutive-active Akt expression (B), or myc expression (C). To examine if IGFBP2 is involved in the PI3K signaling, a pharmacological approach was employed. Consistent with the result in FIG. 3B, LNCaP cells have a high basal level of Akt activation. […] To examine if IGFBP2 plays a biological role for Akt function, clonogenic assay was performed using IGFBP2 knockout MEF (23). While Akt promoted colony formation in IGFBP2 wild type MEF (FIG. 5B, top and left panel), deletion of IGFBP2 abrogated this promoting activity. The requirement of IGFBP2 is specific to Akt because c-myc promoted colony formation in both cells (FIG. 5C). The inability of Akt to promote colony formation in IGFBP2 knockout MEF can be rescued by re-introduction of IGFBP2 (FIG. 5B)."}, "IGFBP2": {"system": "IGFBP2", "conditions": "patients treated (ref 28); cited from earlier work"}},
  "data": [
    {"molecule": "CO[C@H]1C[C@@H]2CC[C@@H](C)[C@@](O)(O2)C(=O)C(=O)N2CCCC[C@H]2C(=O)O[C@H]([C@H](C)C[C@@H]2CC[C@@H](OC(=O)C(C)(CO)CO)[C@H](OC)C2)CC(=O)[C@H](C)/C=C(\\C)[C@@H](O)[C@@H](OC)C(=O)[C@H](C)C[C@H](C)/C=C/C=C/C=C/1C", "note": "[CCI-779]", "values": [
      {"measurement": "inhibition of PTEN mutated cancer cells", "setting": "PTEN mutated tumors; PTEN mutated cancer cells", "value": "effectively inhibits"},
      {"measurement": "sensitivity of tumors with PTEN mutations", "setting": "PTEN mutated tumors; tumors with PTEN mutations (refs 22, 27)", "value": "more sensitive"}
    ]},
    {"molecule": "O=c1cc(N2CCOCC2)oc2c(-c3ccccc3)cccc12", "note": "[LY294002]", "values": [
      {"measurement": "decrease of the percentage of cells in S phase", "setting": "LNCaP cells", "value": 40, "unit": "%"}
    ]},
    {"molecule": "IGF-l: insulin-like growth factor 1, a stimulus for Akt activation", "values": [
      {"measurement": "level of IGFBP2 in serum", "setting": "IGFBP2", "value": "elevated level"}
    ]}
  ]
}
